Values quoted from earlier work as cited in patent publication US12303597B2, “Naloxone formulations for sublingual and/or buccal administration” (Pharmaceutical Productions, Inc., priority 2019, dated 2025).
Structures can show the parent of a compound that is named as a salt. Where two headings read alike, the source gives them in different places.

SMILES	solubility in water (hydrochloride)	solubility in water
C=CCN1CC[C@]23c4c5ccc(O)c4O[C@H]2C(=O)CC[C@@]3(O)[C@H]1C5 [Naloxone hydrochloride]	soluble in water	–
C=CCN1CC[C@]23c4c5ccc(O)c4O[C@H]2C(=O)CC[C@@]3(O)[C@H]1C5 [naloxone base, 17-allyl-4,5α-epoxy-3,14-dihydroxymorphinan-6-one]	–	insoluble in water
